“And” between values parts separate entries of the source, which are not always exact repeats. Identical values can stand only once.
What was measured:
S. mutans biofilm [1] = assay: S. mutans biofilm formation inhibition; format: cell-based; settings: highest tested dose of 64 μg/ml
[2] = test system: V. harveyi quorum sensing; assay: Quorum sensing assay, relative bioluminescence of V. harveyi mutant strains; format: cell-based; settings: sub-MIC concentrations, dose response up to 100 μg/ml
From the text: FIG. 6 Relative Bioluminescence Unit (LUM/(O.D(595 nm))) (RLU) of different mutant strains of bacteria V. harveyi when exposed to different sub-MIC concentrations of AEA.

S. mutans biofilm [3] = assay: CLSM live/dead staining of S. mutans biofilm
Procedure: The bacterial viability and vitality of was analyzed by CLSM (Olympus Fluoview 300, Olympus, Japan) with a UPLSA 10×/0.4 lenses. The biofilm samples were grown overnight on 96 well. The biofilm was washed carefully using 200 μl PBS solution after overnight incubation, and then stained with 50 μl of LIVE/DEAD BacLight fluorescent dye (Invitrogen Life Technologies, Carlsbad, Calif., USA) (1:100) for 20 min in the dark, at room temperature. This staining allowed to distinguish the live organisms from the dead ones. […] The biofilm thickness was examined by generating the optical sections that were acquired at spacing steps of 10 μm Image J program (The National Institute of Health) was used for fluorescence analysis which calculates the fluorescence intensity per area for each color separately.

P. aeruginosa biofilm = assay: CLSM of treated P. aeruginosa biofilm
MRSA strain 33592 = assay: Colony spreading on soft agar, MRSA 33592; settings: AEA 64 μg/ml
Procedure: (§1) The swimming assay was performed on soft agar plates. 0.2% agar medium was prepared and autoclaved. The bacteria were exposed to the tested agents. 3 μl of overnight bacterial culture (O.D 595˜0.5) was inoculated at the centre of the agar plate. […] The plates were then incubated for 15 h.

[4] = test system: S.aureus MRSA 33592 biofilm; assay: Biofilm formation of MRSA 33592, cannabinoid alone and combined with antibiotic (MBIC/FBIC/FBICI); format: cell-based; settings: for MBIC AEA: AEA alone
MRSA strain CI = assay: Colony spreading on soft agar, MRSA CI; settings: AEA 64 μg/ml
Procedure: as §1

S.aureus MRSA 43300 = assay: Growth of MRSA 43300, cannabinoid alone and combined with antibiotic (MIC/FIC/FICI); format: cell-based; settings: MRSA 43300 growth; for MIC AEA: AEA alone
[5] = test system: S.aureus MRSA 43300 biofilm; assay: Biofilm formation of MRSA 43300, cannabinoid alone and combined with antibiotic (MBIC/FBIC/FBICI); format: cell-based; settings: for MBIC AEA: AEA alone
[6] = test system: S. aureus MRSA 24433 biofilm; assay: Biofilm formation of MRSA 24433, cannabinoid alone and combined with antibiotic (MBIC/FBIC/FBICI); format: cell-based; settings: for MBIC AEA: AEA alone; for FBIC AEA: MBIC of AEA in combination with methicillin
C. albicans biofilm = assay: MTT assay of C. albicans biofilm; format: cell-based
Procedure: To investigate the effect of the agents on preformed biofilms, biofilms were allowed to mature in for 24 h at 37° C. in a 6-well plate. The biofilms were washed twice with PBS. The active agents were then applied. The plates were further incubated for 24 h at 37° C. The amounts of biofilms, were determined quantitatively using a standard MTT reduction assay as described previously. Briefly, biofilms were overlaid with […] of 3-(4,5-dimethyl-2-thiazolyl)-2,5-diphenyl-2H-tetrazolium bromide (MTT) and incubated for 2 h at 37° C. Under these conditions, the lightly yellowish MTT was reduced to a blue tetrazolium salt accumulated within the metabolic active biofilms. The stain was then dissolved in DMSO and the absorbance value was measured at 570 nm. The accumulation of tetrazolium salt by the reduction of MTT is proportional to the number of viable cells growing in biofilm. Prior to dissolving in DMSO, biofilms were photographed and visualized. Assay was performed in triplicate.

S. aureus MRSA 24433 = assay: Growth of MRSA 24433, cannabinoid alone and combined with antibiotic (MIC/FIC/FICI); format: cell-based; settings: MRSA 24433 growth; for MIC AEA: AEA alone; for FIC AEA: MIC of AEA in combination with methicillin
S.aureus MRSA 33592 = assay: Growth of MRSA 33592, cannabinoid alone and combined with antibiotic (MIC/FIC/FICI); format: cell-based; settings: MRSA 33592 growth; for MIC AEA: AEA alone, in µg/mL
MRSA strain 43300 = assay: Colony spreading on soft agar, MRSA 43300; settings: AEA 64 μg/ml
Procedure: as §1

CCCCC/C=C\C/C=C\C/C=C\C/C=C\CCCC(=O)NCCO [AEA, arachidonoyl ethanolamide]
inhibition of S. mutans biofilm formation (S. mutans biofilm [1]): 45% | quorum sensing (relative bioluminescence, AUC vs control) [2]: inhibition | S. mutans biofilm formation (CLSM) (S. mutans biofilm [3]): dose-dependent inhibition | layers/depth of P. aeruginosa biofilm (P. aeruginosa biofilm): reduced layers/depth of biofilm | P. aeruginosa biofilm density (P. aeruginosa biofilm; compared with PEA): more significant reduction in biofilm density | reduction of colony diameter (spreading) vs untreated control (MRSA strain 33592): 84% and 84 ± 1.8% | MBIC AEA ([4]; Table 6A): 64 | MBIC AEA ([4]; Table 7): 64 | MBIC AEA ([4]; Table 8A): 64 | FBIC AEA ([4]; MBIC of AEA in combination with ampicillin, Table 8A): 8 | FBIC AEA ([4]; MBIC of AEA in combination with gentamicin, Table 7): 8 | FBIC AEA ([4]; MBIC of AEA in combination with methicillin, Table 6A): 8 | reduction of colony diameter (spreading) vs untreated control (MRSA strain CI): 88% and 88 ± 1.9% | MIC AEA (S.aureus MRSA 43300; Table 6C): > 256 µg/mL | MIC AEA (S.aureus MRSA 43300; Table 8B): > 256 µg/mL | FIC AEA (S.aureus MRSA 43300; MIC of AEA in combination with ampicillin, Table 8B): 16 | FIC AEA (S.aureus MRSA 43300; MIC of AEA in combination with methicillin, Table 6C): 16 | MBIC AEA ([5]; Table 6C): >256 | MBIC AEA ([5]; Table 8B): >256 | FBIC AEA ([5]; MBIC of AEA in combination with ampicillin, Table 8B): 16 | FBIC AEA ([5]; MBIC of AEA in combination with methicillin, Table 6C): 32 | MBIC AEA ([6]; Table 1): 32 µg/mL | MBIC AEA ([6]; Table 6B): 32 | FBIC AEA ([6]; Table 1): 8 µg/mL | FBIC AEA ([6]; Table 6B): 8 | C. albicans biofilm formation (MTT assay) (C. albicans biofilm): dose-dependent inhibition | MIC AEA (S. aureus MRSA 24433; Table 1): >64 µg/mL | MIC AEA (S. aureus MRSA 24433; Table 6B): > 256 µg/mL | FIC AEA (S. aureus MRSA 24433; Table 1): 16 µg/mL | FIC AEA (S. aureus MRSA 24433; Table 6B): 16 | MIC AEA (S.aureus MRSA 33592; Table 6A): >256 | MIC AEA (S.aureus MRSA 33592; Table 7): >256 | MIC AEA (S.aureus MRSA 33592; Table 8A): >256 | decrease of MIC in combination (S.aureus MRSA 33592; AEA with gentamicin vs agent alone): more than 32 fold | FIC AEA (S.aureus MRSA 33592; MIC of AEA in combination with ampicillin, Table 8A): 8 | FIC AEA (S.aureus MRSA 33592; MIC of AEA in combination with gentamicin, Table 7): 8 | FIC AEA (S.aureus MRSA 33592; MIC of AEA in combination with methicillin, Table 6A): 16 | reduction of colony diameter (spreading) vs untreated control (MRSA strain 43300): 73% and 73 ± 2.6%
